{"source": "patent US20050265999A1", "about": "“Modulation of 5-HT2 receptors as a treatment for cardiovascular diseases” (Myogen, Inc., priority 2003, published 2005)", "key": {"5-HT2B": {"biological_target": "T1, 5-HT2B (Homo sapiens, UniProt P41595)", "T1 construct": "purchased MDS Pharma services 271700", "T1 sequence (P41595 whole entry)": "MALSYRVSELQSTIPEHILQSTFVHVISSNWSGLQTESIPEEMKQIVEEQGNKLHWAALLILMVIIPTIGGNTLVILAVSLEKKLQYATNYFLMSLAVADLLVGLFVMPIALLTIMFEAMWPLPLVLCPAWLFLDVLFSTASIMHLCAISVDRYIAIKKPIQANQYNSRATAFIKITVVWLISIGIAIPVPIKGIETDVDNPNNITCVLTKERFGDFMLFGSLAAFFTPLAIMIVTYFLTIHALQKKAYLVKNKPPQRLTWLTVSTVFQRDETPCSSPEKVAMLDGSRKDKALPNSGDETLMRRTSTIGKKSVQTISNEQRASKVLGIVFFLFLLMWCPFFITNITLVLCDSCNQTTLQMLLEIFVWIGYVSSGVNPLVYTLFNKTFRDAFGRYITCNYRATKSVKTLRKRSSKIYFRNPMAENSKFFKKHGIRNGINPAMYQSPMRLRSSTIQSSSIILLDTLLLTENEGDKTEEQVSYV", "assay": "Radioligand receptor binding assay (MDS Pharma)", "conditions": "10 μM compound, n=2", "description": "Receptor binding assays. Receptor binding assays were performed by MDS Pharma services. Assays included: Adenosine A1 (cat# 200510), Adenosine A2A (cat# 200610), Adenosine A3 (cat# 200720), Adrenergic alpha 1 (cat# 203500), Imidazoline 12 central (cat# 241000), Imidazoline I2 peripheral (cat# 241100), Inositol triphosphate (cat# 242500), Phorbol Ester (cat# 264500), 5-HT 2B (cat# 271700), and 5-HT 4 (cat# 272000).\n• Summary of radioligand binding assays for 11 receptors. Data represent % inhibition of ligand binding in the presence of 10 μM 18264 (n=2).\n• Summary of radioligand binding assays for three receptors. Data represent % inhibition of ligand binding in the presence of 10 μM 20068 (n=2)."}, "beta myosin heavy chain": {"test_system": "beta myosin heavy chain", "assay": "Beta myosin heavy chain protein quantitation by cytoblot in NRVM", "assay_type": "cell-based, rat", "conditions": "1 μM, 48 h", "description": "Beta myosin heavy chain protein quantitation by cytoblot. NRVM were plated overnight in 96-well plates. The next day, medium was replaced with serum-free maintenance medium for 4 hours, and test compounds added. Forty-eight hours later, wells were washed twice with […] PBS, aspirating between washes. Cells were fixed by adding […] methanol for 30 min. Methanol was aspirated and wells washed twice with […] PBS. Next, […] blocking solution (PBS+1% BSA) was added for 1 hr at room temperature. Blocking solution was aspirated and […] primary antibody solution added (β-myosin heavy chain hybridoma supernatant+1% BSA) for 1 hr at room temperature. Primary antibody solution was removed and wells washed three times with […] PBS+1% BSA. Wash was aspirated and […] secondary antibody solution added (1:500 dilution of goat […] HRP conjugate in PBS+1% BSA; Southern Biotech #4050-05) for 1 hr at room temperature. Secondary antibody solution was removed and wells washed three times with […] PBS. Wash was aspirated and […] luminol solution added (Pierce #34080). Plates were read in a 96-well luminometer (Packard Fusion)."}, "HDAC5": {"test_system": "HDAC5", "assay": "HDAC localization assay, GFP-HDAC5 in NRVM", "assay_type": "cell-based, rat", "conditions": "NRVM, two hours; 18264 1 μM, PE 20 μM", "description": "NRVM culture. For preparations of neonatal rat ventricular myocytes (NRVMs), hearts were removed from 10-20 newborn (1-2 days old) Sprague-Dawley rats. Isolated ventricles were pooled, minced and dispersed by three 20-min incubations at 37° C. in Ads buffer (116 mM NaCl, 20 mM HEPES, 10 mM NaH2PO4, 5.5 mM glucose, 5 mM KCl, 0.8 mM MgSO4, pH 7.4) containing collagenase Type II (65 units/ml, Worthington) and pancreatin (0.6 mg/ml, GibcoBRL). Dispersed cells were applied to a discontinuous gradient of 40.5% and 58.5% (v/v) Percoll (Amersham Biosciences), centrifuged, and myocytes collected from the interface layer. Myocyte preparations were pre-plated in Dulbecco's modified Eagle's medium (DMEM, Cellgro), supplemented with 10% (v/v) fetal bovine serum (FBS, HyClone), 4 mM L-glutamine and 1% penicillin/streptomycin for 1 hour at 37° C. to reduce fibroblast contamination, then plated at a density of 2.5×10^5 cells per well on 6-well tissue culture plates (or 10,000 cells/well on 96-well tissue culture plates) coated with a 0.2% (w/v) gelatin solution. After 24 hours in culture, myocyte preparations were transferred to serum-free maintenance medium (DMEM supplemented with 0.1% (v/v) Nutridoma (Roche), L-glutamine and penicillin/streptomycin). Where indicated, NRVM were treated with test compounds for a period of 48 h. For immunofluorescence applications, NRVM cultures were fixed, incubated with primary antibodies against alpha skeletal actin and atrial natriuretic factor, then incubated with rhodamine- or flurorescein-conjugated secondary antibodies. For HDAC localization assays, NRVM were plated to clear bottomed 96-well plates and infected overnight with recombinant adenovirus encoding HDAC5 fused to green fluorescent protein (multiplicity of infection=50). The next day, medium was replaced with serum-free maintenance medium for 4 hours, and test compounds added. After two hours, NRVM were fixed and imaged by fluorescent microscopy."}}}
{"smiles": "Cc1c(-c2ccccc2)nc2sc3c(c2c1N)CCCC3", "note": "[Compound 18264, 3-Methyl-2-phenyl-5,6,7,8-tetrahydro-benzo[4,5]thieno[2,3-b]pyridin-4-ylamine]", "values": [{"measurement": "inhibition at 10 µM", "setting": "5-HT2B", "value": 97, "unit": "%"}, {"measurement": "expression of fetal beta isoform of myosin heavy chain", "setting": "beta myosin heavy chain", "value": "significantly up-regulated"}, {"measurement": "nuclear export of HDAC5-GFP", "setting": "HDAC5", "value": "driven from the nucleus to the cytoplasm"}]}
